Test results: publication PMC10533412, “Phosphoantigens glue butyrophilin 3A1 and 2A1 to activate Vγ9Vδ2 T cells” (Nature, 2023)
Values joined by “and” are separate entries in the source; they are usually repeats but may differ in a detail not shown here. Equal entries are not always repeated. Where two headings read alike, the source gives them in different places.

Legend:
[1] = tested on: MIA PaCa-2 cells; assay: Cell killing assay: cytotoxicity of Vγ9Vδ2 T cells towards pAg- or zoledronate-treated MIA PaCa-2 cells (luciferase); type: cell-based, human; conditions: for Bottom (best-fit value) / Top (best-fit value) / Span (best-fit value): Fig. 1b; for Bottom (best-fit value) / Top (best-fit value): log(agonist) vs. response (three parameters); for EC50: Homo sapiens
Experimental: (§1) MIA PaCa-2 cells were infected with lentivirus bearing luciferase transgene. Luciferase-positive cells were plated at 5.0 × 10^3 cells per well in 384-well plates 1 day before transfection. All plasmids were transfected into BTN2A^−/− MIA PaCa-2 (BTN2A1/BTN2A2 KO) cells using Lipofectamine 2000 reagent. […] Stable-lite luciferase (Vazyme) was added to each well and the luciferase signal was immediately measured by using the PerkinElmer EnVision microplate reader.
(§2) Percentage of lysis was calculated using the following equation: percentage of specific lysis = (maximum luciferase − experimental luciferase)/maximum luciferase × 100.

[2] = tested on: VpBTN2 BFI–VpBTN3 BFI; assay: ITC: VpBTN2 BFI binding to VpBTN3 BFI in the presence of pAg; parameters: species or system alpaca (Vicugna pacos)
Experimental: ITC binding fits were calculated using MicroCal Analysis software.
ITC experiments of HMBPP, DMAPP or IPP binding to the VpBTN3 BFI (or the preconditioned VpBTN3 BFI and VpBTN2 BFI complex) and VpBTN2 BFI (or VpBTN1 BFI) binding to VpBTN3 BFI in the presence of HMBPP, DMAPP or IPP were performed according to the same procedures as for the BTN3A1 B30.2 and BTN2A1 B30.2.

[3] = tested on: MIA PaCa-2 cells; assay: AFM-SCFS binding force between a Vγ9Vδ2 T cell and a MIA PaCa-2 cell; type: cell-based, human; parameters: binding force, Mean, Fig. 6b / binding force, Median, Fig. 6b: unit not given here
Experimental: The AFM-SCFS analysis procedure was performed using the JPK CellHesion unit as previously described, and closely followed our previously reported protocol for APCs[4]. […] The glass disks were quickly transferred to an AFM adapter with immediate addition of 1 ml of fresh medium (DMEM: 10% FBS and 1% penicillin–streptomycin). […] The raw data were normalized to the background readings. Blank readings for each set of affinity measurements (Vγ9Vδ2 T cells touching the glass surface) were collected immediately before each assay to perform background subtraction. All data were analysed using the JPK image processing software. […] The following steps were the same as described above.

[4] = tested on: Vγ9Vδ2 T cells; conditions: cited from earlier work
[5] = tested on: BTN2A−/− MIA PaCa-2 (BTN2A1/BTN2A2 KO) cells; assay: Cell killing assay with BTN2A−/− MIA PaCa-2 (BTN2A1/BTN2A2 KO) cells expressing BTN2A1/BTN2A2 variants; conditions: for cell killing, Means, Fig. 6e: N 4; for cell killing, single replicate, Fig. 6e: listed as HMBPP
Experimental: as §1, §2

[6] = 2A1-KO cells + HMBPP, 31 values
[7] = 2A1ΔB30.2 cells + HMBPP, 39 values
[8] = 0.1 μM, cells expressing 2A1 (full)
[9] = 0.1 μM, cells expressing 2A2 B30.2 W374R/M506T (with 2A1 other segments)
[10] = 0.1 μM, cells expressing 2A2 W374R/M506T (with 2A1 EC)
[11] = 0.1 μM, cells expressing 2A2 W374R/M506T (wtih 2A1 JM)
[12] = 0.1 μM, cells expressing 2A2 W374R/M506T
[13] = 1 μM, cells expressing 2A1 (full)
[14] = 1 μM, cells expressing 2A2 B30.2 W374R/M506T (with 2A1 other segments)
[15] = 1 μM, cells expressing 2A2 W374R/M506T (with 2A1 EC)
[16] = 1 μM, cells expressing 2A2 W374R/M506T (wtih 2A1 JM)
[17] = 1 μM, cells expressing 2A2 W374R/M506T
[18] = 10 μM, cells expressing 2A1 (full)
[19] = 10 μM, cells expressing 2A2 B30.2 W374R/M506T (with 2A1 other segments)
[20] = 10 μM, cells expressing 2A2 W374R/M506T (with 2A1 EC)
[21] = 10 μM, cells expressing 2A2 W374R/M506T (wtih 2A1 JM)
[22] = 10 μM, cells expressing 2A2 W374R/M506T
[23] = 2A1 WT, source data Ext. Fig. 3c

For `C/C(=C\COP(=O)(O)OP(=O)(O)O)CO` [Compound 1, (E)-4-hydroxy-3-methylbut-2-en-1-yl diphosphate], the “Bottom (best-fit value)” value ([1]; 2A1 KO cells) was 2.135, the “Top (best-fit value)” value ([1]; 2A1 KO cells) was 50.59 and the “Span (best-fit value)” value ([1]; 2A1 KO cells, three-parameter fit) was 48.45. The “Bottom (best-fit value)” value ([1]; 2A1 WT cells) was 19.47, the “Top (best-fit value)” value ([1]; 2A1 WT cells) was 76.92 and the “Span (best-fit value)” value ([1]; 2A1 WT cells, three-parameter fit) was 57.45. For the same compound, the EC50 ([1]; MIA PaCa-2, BTN2A1 WT MIA PaCa-2 cells, read-out: EC50 for HMBPP-mediated MIA PaCa-2 cell killing) was 6.5e-09 M, the EC50 ([1]; MIA PaCa-2, BTN2A1−/− (KO) MIA PaCa-2 cells, read-out: EC50 for HMBPP-mediated MIA PaCa-2 cell killing) was 3.6e-05 M and the EC50 ([1]; MIA PaCa-2, Fig. 1b, 2A1 KO cells, log(Concentration)/M, three-parameter fit, read-out: LogEC50 (converted)) was 3.6e-05 M. For the same compound, the EC50 ([1]; MIA PaCa-2, Fig. 1b, 2A1 KO cells, three-parameter fit, read-out: EC50) was 3.6e-05 M, the EC50 ([1]; MIA PaCa-2, Fig. 1b, 2A1 WT cells, log(Concentration)/M, three-parameter fit, read-out: LogEC50 (converted)) was 6.5e-09 M and the EC50 ([1]; MIA PaCa-2, Fig. 1b, 2A1 WT cells, three-parameter fit, read-out: EC50) was 6.5e-09 M. The EC50 ([1]; MIA PaCa-2, Supplementary Table 4, read-out: EC50 (M) for MIA PaCa-2 cell lysis mediated by HMBPP analogs and Vγ9Vδ2 T cells) was 3.87e-09 M, the “Binding of VpBTN2 mutants (R475A, T508M and V509A) to VpBTN3 in the presence of HMBPP” value [2] was “abolished its binding” and the “binding force, Mean, Fig. 6b” value [3, 6] was 767.7. For the same compound, the “binding force, Median, Fig. 6b” value [3, 6] was 745, the “binding force, Mean, Fig. 6b” value ([3]; 2A1 cells + HMBPP, 31 values) was 1509 and the “binding force, Median, Fig. 6b” value ([3]; 2A1 cells + HMBPP, 31 values) was 1510. For the same compound, the “binding force, Mean, Fig. 6b” value [3, 7] was 594.3, the “binding force, Median, Fig. 6b” value [3, 7] was 585 and the “Binding force between a Vγ9Vδ2 T cell and a MIA PaCa-2 cell” value ([3]; after HMBPP treatment (1 µM, 4 h), untreated 558 pN) was 1,554 pN. For the same compound, the “EC50 for Vγ9Vδ2 T cell activation” value [4] was “picomolar range”, the “cell killing, Means, Fig. 6e” value ([5]; 0.1 μM, NT cells) was 15.31 and the “cell killing, single replicate, Fig. 6e” value ([5]; 0.1 μM, NT cells) was 16.9534 and 12.1556 and 17.488 and 14.6256. For the same compound, the “cell killing, Means, Fig. 6e” value [5, 8] was 43.2, the “cell killing, single replicate, Fig. 6e” value [5, 8] was 41.0547 and 41.9242 and 44.3091 and 45.5217 and the “cell killing, Means, Fig. 6e” value [5, 9] was 37.63. The “cell killing, single replicate, Fig. 6e” value [5, 9] was 30.7526 and 48.9339 and 41.228 and 29.5964, the “cell killing, Means, Fig. 6e” value [5, 10] was 10.65 and the “cell killing, single replicate, Fig. 6e” value [5, 10] was 10.0494 and 11.5088 and 9.171 and 11.8833. The “cell killing, Means, Fig. 6e” value [5, 11] was 21.79, the “cell killing, single replicate, Fig. 6e” value [5, 11] was 18.9096 and 21.2355 and 31.0049 and 16.0148 and the “cell killing, Means, Fig. 6e” value [5, 12] was 6.989. The “cell killing, single replicate, Fig. 6e” value [5, 12] was 8.189 and 6.668 and 2.002 and 11.0964, the “cell killing, Means, Fig. 6e” value ([5]; 1 μM, NT cells) was 19.83 and the “cell killing, single replicate, Fig. 6e” value ([5]; 1 μM, NT cells) was 17.72 and 22.5709 and 17.5879 and 21.4385. For the same compound, the “cell killing, Means, Fig. 6e” value [5, 13] was 47.49, the “cell killing, single replicate, Fig. 6e” value [5, 13] was 44.8999 and 44.0198 and 51.2118 and 49.8148 and the “cell killing, Means, Fig. 6e” value [5, 14] was 47.88. For the same compound, the “cell killing, single replicate, Fig. 6e” value [5, 14] was 42.711 and 50.2729 and 52.3554 and 46.1815, the “cell killing, Means, Fig. 6e” value [5, 15] was 18.17 and the “cell killing, single replicate, Fig. 6e” value [5, 15] was 13.1292 and 15.284 and 20.3978 and 23.864. For the same compound, the “cell killing, Means, Fig. 6e” value [5, 16] was 29.03, the “cell killing, single replicate, Fig. 6e” value [5, 16] was 27.7855 and 29.0017 and 26.4668 and 32.8608 and the “cell killing, Means, Fig. 6e” value [5, 17] was 15.67. The “cell killing, single replicate, Fig. 6e” value [5, 17] was 11.4295 and 17.9078 and 14.2342 and 19.1099, the “cell killing, Means, Fig. 6e” value ([5]; 10 μM, NT cells) was 24.11 and the “cell killing, single replicate, Fig. 6e” value ([5]; 10 μM, NT cells) was 29.5378 and 18.9356 and 23.5884 and 24.3846. The “cell killing, Means, Fig. 6e” value [5, 18] was 46.91, the “cell killing, single replicate, Fig. 6e” value [5, 18] was 43.2704 and 47.0695 and 47.7293 and 49.5621 and the “cell killing, Means, Fig. 6e” value [5, 19] was 46.58. For the same compound, the “cell killing, single replicate, Fig. 6e” value [5, 19] was 39.3517 and 47.3098 and 45.3387 and 54.323, the “cell killing, Means, Fig. 6e” value [5, 20] was 29.48 and the “cell killing, single replicate, Fig. 6e” value [5, 20] was 34.2513 and 25.8478 and 33.2665 and 24.5352. For the same compound, the “cell killing, Means, Fig. 6e” value [5, 21] was 29.83, the “cell killing, single replicate, Fig. 6e” value [5, 21] was 29.1476 and 34.1243 and 24.0842 and 31.9573 and the “cell killing, Means, Fig. 6e” value [5, 22] was 28.16. The “cell killing, single replicate, Fig. 6e” value [5, 22] was 27.8321 and 21.0649 and 28.437 and 35.311, the “Bottom, best-fit value, log(agonist) vs. response (three parameters)” value [5, 23] was 30.67 and the “LogEC50, best-fit value” [5, 23] was -7.891. For the same compound, the “Span (best-fit value)” value [5, 23] was 32.29, the “Top, best-fit value, log(agonist) vs. response (three parameters)” value [5, 23] was 62.96 and the “Bottom, best-fit value, log(agonist) vs. response (three parameters)” value ([5]; 2A1 ∆C, source data Ext. Fig. 3c) was 18.53.
